# How the values were obtained:
# Experiment in all cases: relative viability (nuclei count vs DMSO), 5 days (fraction); higher = more cells survive
# [1] = compound: CC1=C(C(=O)N2C=CSC2=N1)CCN3CCC(=C(C4=CC=CC=C4)C5=CC=C(C=C5)F)CC3 + CCNC(=O)c1noc(-c2cc(C(C)C)c(O)cc2O)c1-c1ccc(CN2CCOCC2)cc1 [Luminespib] (partner 0.01 µM)
# Outline: (§1)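 Relative viability was taken as the ratio of nuclei in treated wells to nuclei in vehicle wells. Lung cancer cell lines in 1536-well plates received compounds by pin tool one day after seeding, either one drug alone or a fixed anchor-drug dose plus five library-drug doses (not always all listed) in √10 steps. Nuclei were counted on 4× images after 5 days of treatment, and values are medians of duplicate plates.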
# [2] = compound: CC1=C(C(=O)N2C=CSC2=N1)CCN3CCC(=C(C4=CC=CC=C4)C5=CC=C(C=C5)F)CC3 + COc1cc2c(Oc3ccc(NC(=O)C4(C(=O)Nc5ccc(F)cc5)CC4)cc3F)ccnc2cc1OCCCN1CCOCC1 [Foretinib] (partner 0.25 µM)
# Outline: as §1
# [3] = compound: CC1=C(C(=O)N2C=CSC2=N1)CCN3CCC(=C(C4=CC=CC=C4)C5=CC=C(C=C5)F)CC3 + Cc1nc(Nc2ncc(C(=O)Nc3c(C)cccc3Cl)s2)cc(N2CCN(CCO)CC2)n1 [Dasatinib] (partner 0.075 µM)
# Outline: as §1
# [4] = compound: CC1=C(C(=O)N2C=CSC2=N1)CCN3CCC(=C(C4=CC=CC=C4)C5=CC=C(C=C5)F)CC3 + Nc1ncn([C@H]2C[C@H](O)[C@@H](CO)O2)c(=O)n1 [Decitabine] (partner 2 µM)
# Outline: as §1
Cell Line,relative viability ([1]; first compound 0.08 µM),relative viability ([1]; first compound 0.253 µM),relative viability ([1]; first compound 0.8 µM),relative viability ([1]; first compound 2.53 µM),relative viability ([1]; first compound 8 µM),relative viability ([2]; first compound 0.08 µM),relative viability ([2]; first compound 0.253 µM),relative viability ([2]; first compound 0.8 µM),relative viability ([2]; first compound 2.53 µM),relative viability ([2]; first compound 8 µM),relative viability ([3]; first compound 0.08 µM),relative viability ([3]; first compound 0.253 µM),relative viability ([3]; first compound 0.8 µM),relative viability ([3]; first compound 2.53 µM),relative viability ([3]; first compound 8 µM),relative viability ([4]; first compound 0.08 µM),relative viability ([4]; first compound 0.253 µM),relative viability ([4]; first compound 0.8 µM),relative viability ([4]; first compound 2.53 µM),relative viability ([4]; first compound 8 µM)
NCI-H1355,0.767,0.735,0.809,0.656,0.675,1.09,0.94,1.08,0.893,0.661,0.698,0.605,0.769,0.771,0.632,0.38,0.382,0.369,0.354,0.368
NCI-H1395,0.606,0.746,1.01,0.955,0.776,1.07,1.08,0.972,0.97,1.06,0.417,0.406,0.416,0.394,0.438,0.718,0.782,0.652,0.688,0.674
NCI-H1437,1.11,1.21,1.28,1.27,0.739,1.23,1.32,1.31,1.34,0.841,0.471,0.346,0.434,0.426,0.339,0.568,0.62,0.616,0.613,0.39
NCI-H1650,0.182,0.204,0.196,0.188,0.189,1.09,1.12,1.15,1.21,0.65,0.436,0.324,0.297,0.405,0.263,0.372,0.485,0.505,0.435,0.329
NCI-H1651,1.04,0.943,1.07,1.04,0.588,0.747,0.884,0.912,0.822,0.558,0.406,0.535,0.423,0.434,0.341,0.644,0.604,0.587,0.597,0.526
NCI-H1666,1.07,1.06,1.01,0.984,0.848,0.924,0.956,0.949,1.04,0.798,0.794,0.689,0.827,0.861,0.63,0.714,0.786,0.678,0.873,0.616
NCI-H1734,0.202,0.174,0.205,0.166,0.183,0.991,0.913,0.72,0.992,0.555,0.484,0.438,0.458,0.468,0.35,0.481,0.469,0.507,0.504,0.496
NCI-H1755,0.467,0.548,0.374,0.333,0.519,0.907,0.888,0.892,0.912,0.762,0.373,0.422,0.462,0.401,0.269,0.677,0.784,0.721,0.66,0.754
NCI-H1793,0.167,0.207,0.161,0.178,0.168,0.601,0.866,0.795,0.624,0.44,0.363,0.328,0.415,0.467,0.233,0.433,0.558,0.502,0.505,0.416
NCI-H1915,1.01,0.655,0.797,0.656,0.499,1.1,0.964,1.1,1.18,0.535,0.371,0.315,0.305,0.374,0.252,0.305,0.277,0.265,0.253,0.257
NCI-H1944,0.782,0.926,0.751,0.775,0.584,0.8,1.12,0.891,0.862,0.539,0.243,0.237,0.193,0.215,0.242,0.462,0.43,0.413,0.433,0.417
NCI-H1975,0.202,0.303,0.167,0.292,0.181,1.04,0.664,0.965,1.21,0.591,0.355,0.395,0.345,0.386,0.304,0.347,0.507,0.36,0.408,0.353
NCI-H1993,0.79,0.841,0.916,0.897,0.768,0.701,0.677,0.757,0.915,0.682,0.513,0.533,0.559,0.596,0.507,0.635,0.644,0.6,0.64,0.576
NCI-H2009,0.973,0.955,1.08,1.11,0.9,1.33,1.24,1.18,1.26,1.13,0.369,0.304,0.28,0.332,0.285,0.396,0.393,0.396,0.396,0.369
NCI-H2023,1.37,0.783,0.864,0.946,0.518,0.831,0.713,0.758,0.984,0.621,0.549,0.58,0.602,0.513,0.363,0.257,0.248,0.217,0.24,0.156

# — the supplement of paper PMC10307832
